From ChEMBL document CHEMBL3885881, “DrugMatrix”

Species on record: Rattus norvegicus
Experiment: DrugMatrix - Regimen: Daily Repeat
Assay type: toxicity, organism-based, Sprague-Dawley
Parameters: regimen Daily Repeat, gender Male, age 6-8 weeks
Settings: in vivo, iv, vehicle 100 % SALINE; for ABSOLUTE BASOPHIL / ABSOLUTE EOSINOPHIL / ABSOLUTE LYMPHOCYTE / ABSOLUTE MONOCYTE / ABSOLUTE SEGMENTED NEUTROPHIL / BASOPHIL / EOSINOPHIL / ERYTHROCYTE COUNT / HEMATOCRIT / HEMOGLOBIN / LEUKOCYTE COUNT / LYMPHOCYTE / MEAN CORPUSCULAR HEMOGLOBIN / MEAN CORPUSCULAR HEMOGLOBIN CONCENTRATION / MEAN CORPUSCULAR VOLUME / MONOCYTE / NEUTROPHIL / NUCLEATED RED BLOOD CELLS: tissue Blood; for ALANINE AMINOTRANSFERASE / ALKALINE PHOSPHATASE / ASPARTATE AMINOTRANSFERASE / BLOOD UREA NITROGEN / CARBON DIOXIDE / CHOLESTEROL / CREATINE PHOSPHOKINASE / CREATININE / GLUCOSE / LACTATE DEHYDROGENASE / LIPASE / SODIUM / TOTAL BILIRUBIN / TOTAL PROTEIN / URIC ACID: tissue Plasma
[1] = 3 mg/kg, 120 h, dose level High, time 5 day
[2] = […], 72 h, dose 0.65 mg/Kg, dose level Low, time 3 day
[3] = […], 120 h, dose 0.65 mg/Kg, dose level Low, time 5 day

Compound: COc1cccc2c1C(=O)c1c(O)c3c(c(O)c1C2=O)C[C@@](O)(C(=O)CO)C[C@@H]3O[C@H]1C[C@H](N)[C@H](O)[C@H](C)O1 [DOXORUBICIN]
- ABSOLUTE BASOPHIL [1]: 0 CELLS/uL
- ABSOLUTE EOSINOPHIL [1]: 17.33 CELLS/uL
- ABSOLUTE LYMPHOCYTE [1]: 1693 CELLS/uL
- ABSOLUTE MONOCYTE [1]: 0 CELLS/uL
- ABSOLUTE SEGMENTED NEUTROPHIL [1]: 589.67 CELLS/uL
- BASOPHIL [1]: 0%
- EOSINOPHIL [1]: 0.67%
- ERYTHROCYTE COUNT [1]: 5.12 x10E6/uL
- HEMATOCRIT [1]: 32.6%
- HEMOGLOBIN [1]: 12.83 G/DL
- LEUKOCYTE COUNT [1]: 2.3 x10E3/uL
- LYMPHOCYTE [1]: 74%
- MEAN CORPUSCULAR HEMOGLOBIN [1]: 25.07 pg
- MEAN CORPUSCULAR HEMOGLOBIN CONCENTRATION [1]: 39.4 G/DL
- MEAN CORPUSCULAR VOLUME [1]: 63.73 fL
- MONOCYTE [1]: 0%
- NEUTROPHIL [1]: 25.33%
- NUCLEATED RED BLOOD CELLS [1]: 0 /100WBC
- ALANINE AMINOTRANSFERASE [1]: 34 u/L
- ALKALINE PHOSPHATASE [1]: 189.67 u/L
- ASPARTATE AMINOTRANSFERASE [1]: 86.33 u/L
- BLOOD UREA NITROGEN [1]: 12.33 mg/dL
- CARBON DIOXIDE [1]: 25.67 mmol/L
- CHOLESTEROL [1]: 95.67 mg/dL
- CREATINE PHOSPHOKINASE [1]: 299.33 u/L
- CREATININE [1]: 0.1 mg/dL
- GLUCOSE [1]: 147.67 mg/dL
- LACTATE DEHYDROGENASE [1]: 73.33 u/L
- LIPASE [1]: 8.33 u/L
- SODIUM [1]: 144.9 MEQ/L
- TOTAL BILIRUBIN [1]: 0.1 mg/dL
- TOTAL PROTEIN [1]: 5.77 G/DL
- URIC ACID [1]: 0.4 mg/dL
- ABSOLUTE BASOPHIL [2]: 0 CELLS/uL
- ABSOLUTE EOSINOPHIL [2]: 0 CELLS/uL
- ABSOLUTE LYMPHOCYTE [2]: 6184 CELLS/uL
- ABSOLUTE SEGMENTED NEUTROPHIL [2]: 275.33 CELLS/uL
- BASOPHIL [2]: 0%
- EOSINOPHIL [2]: 0%
- ERYTHROCYTE COUNT [2]: 5.13 x10E6/uL
- HEMATOCRIT [2]: 33%
- HEMOGLOBIN [2]: 13.03 G/DL
- LEUKOCYTE COUNT [2]: 6.5 x10E3/uL
- LYMPHOCYTE [2]: 94.67%
- MEAN CORPUSCULAR HEMOGLOBIN [2]: 25.47 pg
- MEAN CORPUSCULAR HEMOGLOBIN CONCENTRATION [2]: 39.5 G/DL
- MEAN CORPUSCULAR VOLUME [2]: 64.47 fL
- MONOCYTE [2]: 0.67%
- NEUTROPHIL [2]: 4.67%
- NUCLEATED RED BLOOD CELLS [2]: 0 /100WBC
- ALANINE AMINOTRANSFERASE [2]: 48.33 u/L
- ALKALINE PHOSPHATASE [2]: 370 u/L
- ASPARTATE AMINOTRANSFERASE [2]: 79.33 u/L
- BLOOD UREA NITROGEN [2]: 12.33 mg/dL
- CARBON DIOXIDE [2]: 30.33 mmol/L
- CHOLESTEROL [2]: 68.33 mg/dL
- CREATINE PHOSPHOKINASE [2]: 280.67 u/L
- CREATININE [2]: 0.29 mg/dL
- GLUCOSE [2]: 179 mg/dL
- LACTATE DEHYDROGENASE [2]: 81.33 u/L
- LIPASE [2]: 10.33 u/L
- SODIUM [2]: 144.23 MEQ/L
- TOTAL BILIRUBIN [2]: 0.1 mg/dL
- TOTAL PROTEIN [2]: 5.93 G/DL
- URIC ACID [2]: 0.87 mg/dL
- ABSOLUTE BASOPHIL [3]: 0 CELLS/uL
- ABSOLUTE EOSINOPHIL [3]: 49.33 CELLS/uL
- ABSOLUTE LYMPHOCYTE [3]: 5081.33 CELLS/uL
- ABSOLUTE MONOCYTE [3]: 14 CELLS/uL
- ABSOLUTE SEGMENTED NEUTROPHIL [3]: 188.67 CELLS/uL
- BASOPHIL [3]: 0%
- EOSINOPHIL [3]: 1%
- ERYTHROCYTE COUNT [3]: 5.28 x10E6/uL
- HEMATOCRIT [3]: 34.1%
- HEMOGLOBIN [3]: 13.37 G/DL
- LEUKOCYTE COUNT [3]: 5.33 x10E3/uL
- LYMPHOCYTE [3]: 95%
- MEAN CORPUSCULAR HEMOGLOBIN [3]: 25.3 pg
- MEAN CORPUSCULAR HEMOGLOBIN CONCENTRATION [3]: 39.17 G/DL
- MEAN CORPUSCULAR VOLUME [3]: 64.67 fL
- MONOCYTE [3]: 0.33%
- NEUTROPHIL [3]: 3.67%
- NUCLEATED RED BLOOD CELLS [3]: 0 /100WBC
- ALANINE AMINOTRANSFERASE [3]: 34.67 u/L
- ALKALINE PHOSPHATASE [3]: 365.33 u/L
- ASPARTATE AMINOTRANSFERASE [3]: 74.67 u/L
- BLOOD UREA NITROGEN [3]: 14 mg/dL
- CARBON DIOXIDE [3]: 26 mmol/L
- CHOLESTEROL [3]: 68.67 mg/dL
- CREATINE PHOSPHOKINASE [3]: 222 u/L
- CREATININE [3]: 0.14 mg/dL
- GLUCOSE [3]: 156 mg/dL
- LACTATE DEHYDROGENASE [3]: 60 u/L
- LIPASE [3]: 9 u/L
- SODIUM [3]: 145.47 MEQ/L
- TOTAL BILIRUBIN [3]: 0.1 mg/dL
- TOTAL PROTEIN [3]: 5.63 G/DL
- URIC ACID [3]: 0.23 mg/dL
